Consider 2 molecules from ChEMBL document CHEMBL2434843, “Synthesis and evaluation of α-ketotriazoles and α,β-diketotriazoles as inhibitors of Mycobacterium tuberculosis” (Eur J Med Chem, 2013).

Converted amounts (≈) assume the structure as drawn.

What all share (assay type): functional
Assay [1] has as its system Mycobacterium tuberculosis. Kind of assay: Antitubercular activity against multidrug-resistant Mycobacterium tuberculosis IC3 assessed as growth inhibition by BACTEC MGIT 960 method.
Assay [2] relates to Mycobacterium tuberculosis. Kind of assay: Antitubercular activity against multidrug-resistant Mycobacterium tuberculosis IC2 assessed as growth inhibition by BACTEC MGIT 960 method.
For assay [3], the system named is Mycobacterium tuberculosis. Kind of assay: Antitubercular activity against multidrug-resistant Mycobacterium tuberculosis IC1 assessed as growth inhibition by BACTEC MGIT 960 method.

For orientation: MIC means the lowest concentration that inhibits growth of the organism.

Consider `COc1ccc(C(=O)C(=O)c2cn(Cc3ccccc3)nn2)cc1`, for which the MIC in assay [1], in assay [2] and in assay [3] was 6.9 µM (≈ 2.22 µg/mL) each time.
In the case of `O=C(C(=O)c1ccc(Cl)cc1Cl)c1cn(Cc2ccccc2)nn1`, the MIC in assay [1], in assay [2] and in assay [3] was 7.6 µM (≈ 2.74 µg/mL) in each case.
